{"source": "paper PMC2648976", "about": "(Biochemistry, 2008)", "key": {"WNV NS2B-NS3 protease [1]": {"target": "T1, WNV NS2B-NS3 protease (West Nile virus, UniProt Q9Q6P4)", "T1 sequence (Q9Q6P4 1428-1467 limits assumed, looked up)": "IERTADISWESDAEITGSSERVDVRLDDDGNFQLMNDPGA", "T1 sequence (Q9Q6P4 1506-1683 limits assumed, looked up)": "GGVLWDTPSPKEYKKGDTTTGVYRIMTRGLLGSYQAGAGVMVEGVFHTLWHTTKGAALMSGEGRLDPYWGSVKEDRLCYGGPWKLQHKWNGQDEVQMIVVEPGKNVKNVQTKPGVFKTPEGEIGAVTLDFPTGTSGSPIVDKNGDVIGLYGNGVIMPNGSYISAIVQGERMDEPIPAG", "assay": "NS2B-NS3pro kinetic assay, cleavage of fluorophore-linked", "format": "biochemical", "conditions": "for substrate inhibition (reaction mechanism): high substrate concentrations"}, "WNV NS2B-NS3 protease [2]": {"target": "T1, WNV NS2B-NS3 protease", "assay": "Inhibition of NS2B-NS3pro by product-analog peptides", "format": "biochemical", "conditions": "for Kd (substrate) compared with Ki1 (inhibitor) / difference between Kd2 (substrate) and Ki2 (inhibitor): mixed inhibitor-substrate inhibition model"}, "[3]": {"conditions": "200 mM Tris pH 9.0, 20% glycerol"}}, "note": "“Also recorded” adds a separate entry of the source. Where a SMILES comes first, the peptide text is derived from it. The star is where a group is joined. AMC = Cc1cc(=O)oc2cc(N*)ccc12", "data": [{"compound": "CC(=O)N[C@@H](CC(=O)O)C(=O)N[C@@H](Cc1ccccc1)C(=O)N[C@@H](C)C(=O)N[C@@H](CO)C(=O)NCC(=O)N[C@@H](CCCCN)C(=O)N[C@@H](CCCNC(=N)N)C(=O)Nc1ccc2c(C)cc(=O)oc2c1", "note": "[Ac-DFASGKR-AMC, Ac-Asp-Phe-Ala-Ser-Gly-Lys-Arg-AMC] (Ac-DFASGKR-{AMC})", "values": [{"measurement": "substrate inhibition (reaction mechanism)", "setting": "WNV NS2B-NS3 protease [1]; [3]", "result": "substrate inhibition was also observed with the longer substrate (Figure 2b), though it was observed at higher substrate concentrations compared to the tripeptide substrates; also recorded: substrate inhibition model"}, {"measurement": "substrate inhibition (reaction mechanism)", "setting": "WNV NS2B-NS3 protease [1]; 200 mM Tris pH 9.0, 20% glycerol, listed as Ac-Asp-Phe-Ala-Ser-Gly-Lys-Arg-AMC", "result": "demonstrated substrate inhibition"}]}, {"compound": "Cc1cc(=O)oc2cc(NC(=O)[C@H](CCCNC(=N)N)NC(=O)[C@H](CCCNC(=N)N)NC(=O)CNC(=O)OC(C)(C)C)ccc12", "note": "[Boc-GRR-AMC, Boc-Gly-Arg-Arg-AMC]", "values": [{"measurement": "NS2B-NS3pro activity against substrate", "setting": "WNV NS2B-NS3 protease [1]; [3]", "result": "clearly active"}, {"measurement": "relative binding (Kd)", "setting": "WNV NS2B-NS3 protease [1]; Boc-GRR-AMC relative to Ac-DFASGKR-AMC", "result": "tighter binding (lower Kd)"}, {"measurement": "relative extent of substrate inhibition", "setting": "WNV NS2B-NS3 protease [1]; at high substrate concentrations", "result": "more pronounced with Boc-GRR-AMC than with Boc-GKR-AMC (data not shown) or Ac-DFASGKR-AMC"}, {"measurement": "substrate inhibition (reaction mechanism)", "setting": "WNV NS2B-NS3 protease [1]; [3]", "result": "initial reaction velocities reached a peak and then decreased with increasing substrate concentration; also recorded: substrate inhibition model"}, {"measurement": "substrate inhibition (reaction mechanism)", "setting": "WNV NS2B-NS3 protease [1]; 200 mM Tris pH 9.0, 20% glycerol, listed as Boc-Gly-Arg-Arg-AMC", "result": "demonstrated substrate inhibition"}]}, {"compound": "Ac-DFASGKR", "values": [{"measurement": "Kd (substrate) compared with Ki1 (inhibitor)", "setting": "WNV NS2B-NS3 protease [2]", "result": "very similar"}, {"measurement": "difference between Kd2 (substrate) and Ki2 (inhibitor)", "setting": "WNV NS2B-NS3 protease [2]", "result": "~ 2 -fold"}, {"measurement": "mechanism of inhibition", "setting": "WNV NS2B-NS3 protease [2]; model discrimination analysis with Dynafit", "result": "mixed inhibitor-substrate inhibition model; also recorded: mixed non-competitive mechanism (with both competitive and uncompetitive interactions)"}]}, {"compound": "CC(=O)NCC(=O)N[C@@H](CCCNC(=N)N)C(=O)N[C@@H](CCCNC(=N)N)C(N)=O", "note": "[Ac-GRR-NH2]", "values": [{"measurement": "Kd (substrate) compared with Ki1 (inhibitor)", "setting": "WNV NS2B-NS3 protease [2]", "result": "similar"}, {"measurement": "difference between Kd2 (substrate) and Ki2 (inhibitor)", "setting": "WNV NS2B-NS3 protease [2]", "result": "~ 2 -fold"}, {"measurement": "Ki3 (interaction with substrate-inhibited enzyme-substrate complex)", "setting": "WNV NS2B-NS3 protease [2]; model with and without this interaction similar", "result": "large Ki3 which did not play a substantial role in the overall inhibition"}]}]}
